Assay results published in patent US12024507B2, “Compounds as GLP-1R agonists” (Terns Pharmaceuticals, Inc., priority 2021, dated 2024).

Assay: Passive permeability and efflux ratio in Caco-2 cell monolayers
Format: in vitro ADME
Conditions: human, Caco-2, 5 μM, pH 7.4, 120 minutes; for Papp A→B at 120 min, 5 μM: apical to basolateral; for Papp B→A at 120 min, 5 μM: basolateral to apical
Experimental: Caco-2 cells (clone C2BBe1) were obtained from American Type Culture Collection (Manassas, VA). Cell monolayers were grown to confluence on collagen-coated, microporous membranes in 12-well assay plates. Details of the plates and their certification are shown below. The permeability assay buffer was Hanks' balanced salt solution containing 10 mM HEPES and 15 mM glucose at a pH of 7.4. The buffer in the receiver chamber also contained 1% bovine serum albumin. The dosing solution concentration was 5 μM of test article in the assay buffer. Cell monolayers were dosed on the apical side (A-to-B) or basolateral side (B-to-A) and incubated at 37° C. with 5% CO2 in a humidified incubator. Samples were taken from the donor and receiver chambers at 120 minutes. Each determination was performed in duplicate. The flux of lucifer yellow was also measured post-experimentally for each monolayer to ensure no damage was inflicted to the cell monolayers during the flux period. All samples were assayed by LC-MS/MS using electrospray ionization. The apparent permeability (Papp) and percent recovery were calculated as follows: Papp=(dCr/dt)×Vr/(A×CA) (1) Percent Recovery=100×((Vr×Cr^final)+(Vd×Cd^final))/(Vd×CN) (2), where, dCr/dt is the slope of the cumulative receiver concentration versus time in μM s^−1; Vr is the volume of the receiver compartment in cm^3; Vd is the volume of the donor compartment in cm^3; A is the area of the insert (1.13 cm^2 for 12-well); CA is the average of the nominal dosing concentration and the measured 120-minute donor concentration in μM; CN is the nominal concentration of the dosing solution in μM; Cr^final is the cumulative receiver concentration in μM at the end of the incubation period; Cd^final is the concentration of the donor in μM at the end of the incubation period. Efflux ratio (ER) is defined as Papp (B-to-A)/Papp (A-to-B).

Row | Compound | Papp A→B at 120 min, 5 μM | Papp B→A at 120 min, 5 μM
1 | N#Cc1ccc(COc2cccc(C3CCN(Cc4nc5ccc(-c6nnn[nH]6)cc5n4C[C@@H]4CCO4)CC3)n2)c(F)c1 [Compound 8] | 1.8 ×10⁻⁶ cm/s | 18.8 ×10⁻⁶ cm/s
2 | N#Cc1ccc(COc2cccc(C3CCN(Cc4nc5ccc(-c6nc(=O)[nH]o6)cc5n4Cc4cncs4)CC3)n2)c(F)c1 [Compound 13, 3-fluoro-4-(((6-(1-((6-(3-oxo-2,3-dihydro-1,2,4-oxadiazol-5-yl)-1-(thiazol-5-ylmethyl)-1H-benzo[d]imidazol-2-yl)methyl)piperidin-4-yl)pyridin-2-yl)oxy)methyl)benzonitrile] | 46.9 ×10⁻⁶ cm/s | 51.1 ×10⁻⁶ cm/s
